Laboratory results reported in patent publication US8475940B2, “Anthracene derivative and light-emitting device” (Toppan Printing Co., Ltd., priority 2009, dated 2013).
Values joined by “and” are separate entries in the source; they are usually repeats but may differ in a detail not shown here. Equal entries are not always repeated.

Assays:
[1] = Solubility in toluene / organic solvents at ambient temperature; format: physicochemical; conditions: for solubility (concentration dissolved in toluene): ambient temperature; for solubility in organic solvents: aromatic solvents such as xylene, anisole, tetralin
Method: The compound 1 was dissolved with a concentration of 1.3 mg in 1 ml of toluene at ambient temperature and used as a light-emitting dopant for a blue light-emitting layer ink, which could be applied to form a film.
The isomer component 1 of compound 2 was dissolved in a concentration of 34 mg in 1 ml of toluene at ambient temperature and used for ink that formed each layer of an organic EL as a carrier transport layer, each color light-emitting host and light-emitting dopant, thereby enabling the formation of a coating film.
The compound 3 was dissolved in a concentration of 150 mg in 1 ml of toluene at ambient temperature and used for ink that formed each layer of an organic EL as a carrier transport layer, each color light-emitting host, or blue light-emitting dopant, thereby enabling the formation of a coating film.
Further, the compound 31 can be dissolved in various mixture solvents to be matched with the viscosities of various printing systems.
The compound 32 was soluble in a concentration of 6 mg in 1 ml of toluene at ambient temperature. When the compound 32 was gradually added to dissolve while heating on a hot plate, 34 mg of the compound 32 was dissolved when the temperature was returned to ambient temperature. The compound 32 can be used as an electron transportable carrier transport material and may be dissolved in an organic solvent such as toluene, xylene, anisole, and tetralin to add the obtained solution to ink for forming each layer of an organic EL, thereby forming a coating film.

[2] = Energy level: ionization potential of spin coat film by surface analyzer AC-1, electron affinity by subtracting absorption-edge energy; format: physicochemical; conditions: for electron affinity: ionization potential minus absorption-edge energy; for ionization potential: spin coat film on ITO glass, surface analyzer AC-1; for Eg: energy difference between ionization potential and electron affinity
Method: (§1) A solution prepared by dissolving 1.3 mg of the compound 1 in 1 ml of toluene was applied to an ITO transparent electroconductive glass by spin coating to measure the ionization potential by a surface analyzer AC-1 manufactured by Riken Keiki Co., Ltd., to find that the ionization potential was 5.9 eV.
A solution prepared by dissolving 10 mg of the isomer component 1 of the compound 2 in 1 ml of toluene was applied to an ITO transparent electroconductive glass by spin coating to measure the ionization potential by a surface analyzer AC-1 manufactured by Riken Keiki Co., Ltd., to find that the ionization potential was 5.9 eV.
as §1, with “10” for “1.3”, “eV. The electron affinity obtained by subtracting the absorption-edge energy from the ionization potential was 3.0 eV.” for “eV.”
as §1, with “dissolving 10” for “dissolving 1.3”, “compound 31” for “compound 1”, “was 6.2” for “was 5.9”, “eV. The electron affinity obtained by subtracting absorption-edge energy from the ionization potential was 3.0 eV.” for “eV.”
as §1, with “dissolving 10” for “dissolving 1.3”, “compound 32” for “compound 1”, “was 6.2” for “was 5.9”, “eV. The electron affinity obtained by subtracting absorption-edge energy from the ionization potential was 3.0 eV.” for “eV.”

[3] = Optical deterioration of fluorescent intensity of film under 340 nm irradiation; format: physicochemical; conditions: irradiated with 340 nm light for 1,000 sec, slit 1.5 nm
Method: A film of the ink was formed on an ITO transparent electroconductive glass by spin coating and the fluorescent spectrum intensity was measured by a fluorophotometer (trade name: RF-5300PC, manufactured by Shimadzu Corporation) at an excitation spectrum of 340 nm.
Using a fluorophotometer (trade name: RF-5300PC, manufactured by Shimadzu Corporation) wherein the width of the slit for excitation light was changed to 1.5 nm, this light emitting film was successively irradiated with light having a wavelength of 340 nm for 1,000 sec, with the result that a single film of the isomer component 1 of the compound 2 was decreased in fluorescent intensity to 57% of the initial intensity and the single film of BTrSBF was decreased to 64% of the initial intensity whereas the film obtained by doping BTrSBF with 5 wt % of the compound 2 kept 74% of the initial intensity, showing that this film had the effect of suppressing the optical deterioration of fluorescent intensity.

[4] = Thermal analysis by DSC (glass transition temperature); format: physicochemical; conditions: for thermal stability: second heatup after rapid cooling, no exothermic or endothermic peak except Tg
Method: The glass transition temperature (Tg), crystallization temperature (Tc), and melting point (Tm) of the compound 1 were measured by EXSTAR6000 Series DSC6200 manufactured by Seiko Instruments Inc., at a temperature rise rate of 20° C./min. […] Tm was 493° C. to 513° C. (peak 504° C.).
The glass transition temperature (Tg), crystallization temperature (Tc), and melting point (Tm) of the isomer component 1 of the compound 2 were measured by an EXSTAR6000Series DSC6200 manufactured by Seiko Instruments Inc., at a temperature rise rate of 20° C./min.
The Tg, Tc, and Tm of the compound 33 measured by DSC were 240° C., 323° C., and 403° C. respectively.

[5] = background section, DSC; cited from earlier work
[6] = Fluorescent spectrum of spin coat film (fluorophotometer RF-5300PC); format: physicochemical; conditions: for fluorescent peak wavelength: single-compound spin coat film on ITO transparent electroconductive glass, excitation 330-340 nm
Method: The fluorescent spectrum of a spin coat film of the compound 31 on an ITO transparent electroconductive glass was measured. The results correspond to a graph (0 wt %) of FIG. 8. The measurement was made by a fluorophotometer (trade name: RF-5300PC, manufactured by Shimadzu Corporation). The compound 31 emitted blue light having a fluorescent peak wavelength of 422 nm.
First, a fluorescent spectrum obtained when a film formed in a thickness of 41 nm by applying a solution of the compound 32 to the surface of an ITO transparent electroconductive glass by spin coating was excited by 340 nm light was obtained (solid line in FIG. 10). The measurement was made by a fluorophotometer (trade name: RF-5300PC, manufactured by Shimadzu Corporation). Blue light emission having a fluorescent peak wavelength of 424 nm was obtained.
A fluorescent spectrum obtained when a film was formed in the same manner as above by doping the compound 32 with 5 wt % of the compound 2 was measured in the same manner as above. The results are shown by the dotted line in FIG. 10. The fluorescent peak wavelength was 453 nm and pure blue light emission was obtained which was more intensified than the case where the compound 32 was not doped with the compound 2.
Xylene solutions containing only the compound 31, only the compound 33, and a mixture of the compound 31:compound 33:compound 3 (10:2:1 ratio by weight) such that each solid content was 2 wt % were respectively applied to a quarts plate by spin coating (rotated at 500 rpm for 5 sec and then at 1200 rpm for 60 sec) to form films having almost the same thickness, thereby measuring a fluorescent spectrum.

Compound | solubility (concentration dissolved in toluene) ([1]; toluene) | electron affinity [2] | ionization potential [2] | thermal stability [4] | fluorescent peak wavelength [6] | further results
CC(C)(C)c1ccc2c(-c3ccccc3-c3ccccc3)c3ccccc3c(-c3ccccc3-c3ccccc3)c2c1 [TBBPA, 9,10-di(biphenyl-2-yl)-2-t-butylanthracene] |  |  |  |  |  | glass transition temperature (Tg) of prior-art material [5]: about 74 °C
CC(C)(C)c1ccc2c(-c3ccc4ccccc4c3)c3ccccc3c(-c3ccc4ccccc4c3)c2c1 [TBDNA, 9,10-di(2-naphthyl)-2-tertiarybutylanthracene] |  |  |  |  |  | glass transition temperature (Tg) of prior-art material [5]: about 128 °C
CC(C)(C)c1ccc(-c2nc(-c3ccc(-c4ccccc4-c4c5ccccc5c(-c5ccccc5-c5ccc(-c6nc(-c7ccc(C(C)(C)C)cc7)nc(-c7ccc(C(C)(C)C)cc7)n6)cc5)c5cc(C(C)(C)C)ccc45)cc3)nc(-c3ccc(C(C)(C)C)cc3)n2)cc1 [compound 3, 2-tert-butyl-9,10-bis{4-[2,4-bis(4-tert-butylphenyl)-1,3,5-triazine-6-yl]biphenyl-2′-yl}anthracene] | 150 mg in 1 ml |  |  | thermally very stable | 453 nm | 
CC(C)(C)c1ccc2c(c1)c1cc(C(C)(C)C)ccc1n2-c1ccc(-c2cc(-c3ccc(-n4c5ccc(C(C)(C)C)cc5c5cc(C(C)(C)C)ccc54)cc3)cc(-c3ccc(-n4c5ccc(C(C)(C)C)cc5c5cc(C(C)(C)C)ccc54)cc3)c2)cc1 [compound 33, 1,3,5-tris(4-(3,6-di-tert-butyl-N-carbazolyl)phenyl)benzene] |  | 2.8 eV | 6.2 eV |  |  | solubility in organic solvents ([1]; toluene): easily soluble; amount dissolved in general organic solvent ([1]; toluene, xylene, tetralin or mixture solvent): ≥ 10 wt %; fluorescent peak ([6]; spin coat film from xylene solution on quartz plate): 380 nm; glass transition temperature (Tg) ([4]; DSC, temperature rise rate 20° C./min): 240 °C

More lines, main results first:

solubility (concentration dissolved in toluene) ([1]; toluene) | electron affinity [2] | ionization potential [2] | thermal stability [4] | fluorescent peak wavelength [6] | Compound | further results
34 mg in 1 ml | 2.9 eV | 5.9 eV | thermally very stable |  | Cc1ccc2c(-c3ccccc3-c3ccc(-c4nc(-c5ccc(C(C)(C)C)cc5)nc(-c5ccc(C(C)(C)C)cc5)n4)cc3)c3ccccc3c(-c3ccccc3-c3ccc(-c4nc(-c5ccc(C(C)(C)C)cc5)nc(-c5ccc(C(C)(C)C)cc5)n4)cc3)c2c1 (single isomer, unassigned) [isomer component 1 of the compound 2, 2-methyl-9,10-bis{4-[2,4-bis(4-tert-butylphenyl)-1,3,5-triazine-6-yl]biphenyl-2′-yl}-anthracene] | fluorescent intensity remaining [3]: 57 % of the initial intensity
1.3 mg in 1 ml | 2.9 eV and 3.0 eV | 5.9 eV |  | 448 nm | CC(C)(C)c1ccc(-c2nc(-c3ccc(-c4ccccc4-c4c5ccccc5c(-c5ccccc5-c5ccc(-c6nc(-c7ccc(C(C)(C)C)cc7)nc(-c7ccc(C(C)(C)C)cc7)n6)cc5)c5ccccc45)cc3)nc(-c3ccc(C(C)(C)C)cc3)n2)cc1 [compound 1, 9,10-bis{4-[2,4-bis(4-tert-butylphenyl)-1,3,5-triazine-6-yl]biphenyl-2′-yl}anthracene] | 
 |  |  |  | 454 nm | Cc1ccc2c(-c3ccccc3-c3ccc(-c4nc(-c5ccc(C(C)(C)C)cc5)nc(-c5ccc(C(C)(C)C)cc5)n4)cc3)c3ccccc3c(-c3ccccc3-c3ccc(-c4nc(-c5ccc(C(C)(C)C)cc5)nc(-c5ccc(C(C)(C)C)cc5)n4)cc3)c2c1 [compound 2, 2-methyl-9,10-bis{4-[2,4-bis(4-tert-butylphenyl)-1,3,5-triazine-6-yl]biphenyl-2′-yl}anthracene] | Eg [2]: about 2.9 eV
0.4 g in 1 ml | 3.0 eV | 6.2 eV | thermally stable glass-like material | 422 nm | CC(C)(C)c1ccc(-c2nc(-c3ccc(-c4ccc5c(c4)C4(c6ccccc6-5)c5ccccc5-c5ccc(-c6ccc(-c7nc(-c8ccc(C(C)(C)C)cc8)nc(-c8ccc(C(C)(C)C)cc8)n7)cc6)cc54)cc3)nc(-c3ccc(C(C)(C)C)cc3)n2)cc1 [compound 31, 2,2′-bis(4-(2,4-bis(4-tert-butylphenyl)-1,3,5-triazine-6-yl)phenyl)-9,9′-spirobifluorene] | solubility in organic solvents ([1]; toluene): easily soluble; Eg [2]: 3.2 eV; fluorescent intensity remaining [3]: 64 % of the initial intensity
6 mg in 1 ml | 3.0 eV | 6.2 eV |  | 424 nm | Cc1ccc(-c2nc(-c3ccc(C)cc3)nc(-c3ccc(-c4ccc5c(c4)C4(c6ccccc6-5)c5ccccc5-c5ccc(-c6ccc(-c7nc(-c8ccc(C)cc8)nc(-c8ccc(C)cc8)n7)cc6)cc54)cc3)n2)cc1 [compound 32] | amount dissolved after heating on a hot plate and return to ambient temperature ([1]; 1 ml of toluene, gradually added while heating, returned to ambient temperature): 34 mg
